According to ChEMBL document CHEMBL1155715, “New natural epothilones from Sorangium cellulosum, strains So ce90/B2 and So ce90/D13: isolation, structure elucidation, and SAR studies” (J Nat Prod, 2001):
Values after ≈ are worked out from the molar mass of the structure shown.

What follows are compounds tested on L929 (assay: Cytotoxicity against mouse L929 cells). Details: not given.
Type: cell-based
Work on `C/C(=C\c1csc(C)n1)[C@@H]1C/C=C/CCC[C@H](C)[C@H](O)[C@@H](C)C(=O)[C@@H](C)[C@@H](O)CC(=O)O1` yielded an IC50 of 0.4 µg/mL (≈ 0.863 µM). For `C/C(=C\c1csc(C)n1)[C@@H]1C/C=C/CCC[C@H](C)[C@H](O)[C@@H](C)C(=O)[C@H](C)[C@@H](O)CC(=O)O1`, the IC50 was 0.08 µg/mL (≈ 0.173 µM).

Same assay, conditions: read-out: IC50
Compound `C/C(=C\c1csc(C)n1)[C@@H](O)C/C=C\CCC[C@H](C)[C@H](O)[C@@H](C)C(=O)C(C)C` has an IC50 of 0.8 µg/mL (≈ 1.96 µM). Work on `CCC(=O)[C@@H](C)CCC/C=C\C[C@H](O)/C(C)=C/c1csc(C)n1` yielded an IC50 of over 4 µg/mL. `CCC(=O)[C@@H](C)CCC/C(C)=C\C[C@H](O)/C(C)=C/c1csc(C)n1` was tested, and the IC50 was over 4 µg/mL. `C/C(=C\c1csc(C)n1)[C@@H]1C[C@@H]2O[C@@H]2CCC[C@H](C)[C@H](O)[C@@H](C)C(=O)[C@H](C)[C@@H](O)CC(=O)O1` [EPOTHILONE A1] was tested, and the IC50 was 0.02 µg/mL (≈ 0.0417 µM). Compound `C/C(=C\c1csc(C)n1)[C@@H]1C[C@@H]2O[C@@H]2CCC[C@H](C)[C@H](O)[C@@H](C)C(=O)[C@@H](C)[C@@H](O)CC(=O)O1` [EPOTHILONE A2] has an IC50 of 0.007 µg/mL (≈ 0.0146 µM). For `Cc1nc(/C=C/[C@@H]2C[C@@H]3O[C@@H]3CCC[C@H](C)[C@H](O)[C@@H](C)C(=O)C(C)(C)[C@@H](O)CC(=O)O2)cs1` [EPOTHILONE A8], the IC50 was 0.02 µg/mL (≈ 0.0417 µM). Work on `Cc1nc(/C=C(\CO)[C@@H]2C[C@@H]3O[C@@H]3CCC[C@H](C)[C@H](O)[C@@H](C)C(=O)C(C)(C)[C@@H](O)CC(=O)O2)cs1` [EPOTHILONE A9] yielded an IC50 of 0.1 µg/mL (≈ 0.196 µM). `C/C(=C\c1csc(C)n1)[C@@H]1C[C@@H]2O[C@@H]2CCC[C@H](C)[C@H](O)[C@@H](C)C(=O)C(C)(C)[C@@H](O)CC(=O)O1` [EPOTHILONE A] was tested, and the IC50 was 0.004 µg/mL (≈ 0.0081 µM). `C/C(=C\c1csc(C)n1)[C@@H]1C/C=C\CCC[C@H](C)[C@H](O)[C@@H](C)C(=O)[C@H](C)[C@@H](O)CC(=O)O1` [EPOTHILONE C1] showed an IC50 of 0.9 µg/mL (≈ 1.94 µM). Work on `C/C(=C\c1csc(C)n1)[C@@H]1C/C=C\CCC[C@H](C)[C@H](O)[C@@H](C)C(=O)[C@@H](C)[C@@H](O)CC(=O)O1` [EPOTHILONE C2] yielded an IC50 of 0.8 µg/mL (≈ 1.73 µM). In the case of `C/C(=C\c1csc(C)n1)[C@@H]1C/C=C\CCC[C@H](C)[C@H](O)CC(=O)C(C)(C)[C@@H](O)CC(=O)O1` [EPOTHILONE C3], the IC50 was 1.5 µg/mL (≈ 3.24 µM). With `C/C(=C\c1csc(C)n1)[C@@H]1C/C=C\CCCC[C@H](O)[C@@H](C)C(=O)C(C)(C)[C@@H](O)CC(=O)O1` [EPOTHILONE C4] the IC50 was 0.8 µg/mL (≈ 1.73 µM). For `C/C(=C\c1csc(C)n1)[C@@H]1C/C=C\CC/C=C(\C)[C@H](O)[C@@H](C)C(=O)C(C)(C)[C@@H](O)CC(=O)O1` [EPOTHILONE C5], the IC50 was 1.5 µg/mL (≈ 3.15 µM). With `C/C(=C\c1csc(C)n1)[C@@H]1C/C=C\C=C\C[C@H](C)[C@H](O)[C@@H](C)C(=O)C(C)(C)[C@@H](O)CC(=O)O1` [EPOTHILONE C6] the IC50 was 0.12 µg/mL (≈ 0.252 µM). `C/C(=C\c1csc(C)n1)[C@H]1OC(=O)C[C@H](O)C(C)(C)C(=O)[C@H](C)[C@@H](O)[C@@H](C)CCC/C=C\[C@@H]1O` [EPOTHILONE C7] was tested, and the IC50 was 0.025 µg/mL (≈ 0.0506 µM). For `Cc1nc(/C=C/[C@@H]2C/C=C\CCC[C@H](C)[C@H](O)[C@@H](C)C(=O)C(C)(C)[C@@H](O)CC(=O)O2)cs1` [EPOTHILONE C8], the IC50 was 0.25 µg/mL (≈ 0.539 µM). In the case of `Cc1nc(/C=C(\CO)[C@@H]2C/C=C\CCC[C@H](C)[C@H](O)[C@@H](C)C(=O)C(C)(C)[C@@H](O)CC(=O)O2)cs1` [EPOTHILONE C9], the IC50 was 0.2 µg/mL (≈ 0.405 µM). In the case of `C/C(=C\c1csc(C)n1)[C@@H]1C/C=C\CCC[C@H](C)[C@H](O)[C@@H](C)C(=O)C(C)(C)[C@@H](O)CC(=O)O1` [EPOTHILONE C], the IC50 was 0.06 µg/mL (≈ 0.126 µM). Work on `C/C1=C/C[C@@H](/C(C)=C/c2csc(C)n2)OC(=O)C[C@H](O)[C@@H](C)C(=O)[C@H](C)[C@@H](O)[C@@H](C)CCC1` [EPOTHILONE D1] yielded an IC50 of 0.035 µg/mL (≈ 0.0733 µM). Compound `C/C1=C/C[C@@H](/C(C)=C/c2csc(C)n2)OC(=O)C[C@H](O)[C@H](C)C(=O)[C@H](C)[C@@H](O)[C@@H](C)CCC1` [EPOTHILONE D2] has an IC50 of 0.007 µg/mL (≈ 0.0147 µM). With `C/C1=C/C[C@@H](/C(C)=C/c2csc(C)n2)OC(=O)C[C@H](O)C(C)(C)C(=O)[C@H](C)[C@@H](O)/C(C)=C/CC1` [EPOTHILONE D5] the IC50 was 0.2 µg/mL (≈ 0.408 µM). `C/C1=C/C[C@@H](/C(C)=C/c2csc(C)n2)OC(=O)C[C@H](O)C(C)(C)C(=O)[C@H](C)[C@@H](O)[C@@H](C)CCC1` [EPOTHILONE D] was tested, and the IC50 was 0.02 µg/mL (≈ 0.0407 µM). For `C/C(=C\c1csc(CO)n1)[C@@H]1C[C@@H]2O[C@@H]2CCC[C@H](C)[C@H](O)[C@@H](C)C(=O)C(C)(C)[C@@H](O)CC(=O)O1` [EPOTHILONE E], the IC50 was 0.01 µg/mL (≈ 0.0196 µM). In the case of `C/C(=C\c1csc(CO)n1)[C@@H]1C[C@@H]2O[C@]2(C)CCC[C@H](C)[C@H](O)[C@@H](C)C(=O)C(C)(C)[C@@H](O)CC(=O)O1` [EPOTHILONE F], the IC50 was 0.0015 µg/mL (≈ 0.00286 µM). `C/C(=C\c1coc(C)n1)[C@@H]1C[C@@H]2O[C@@H]2CCC[C@H](C)[C@H](O)[C@@H](C)C(=O)C(C)(C)[C@@H](O)CC(=O)O1` [EPOTHILONE G1] gave an IC50 of 0.006 µg/mL (≈ 0.0126 µM). `C/C(=C\c1coc(C)n1)[C@@H]1C[C@@H]2O[C@]2(C)CCC[C@H](C)[C@H](O)[C@@H](C)C(=O)C(C)(C)[C@@H](O)CC(=O)O1` [EPOTHILONE G2] showed an IC50 of 0.001 µg/mL (≈ 0.00203 µM). `C/C(=C\c1coc(C)n1)[C@@H]1C/C=C\CCC[C@H](C)[C@H](O)[C@@H](C)C(=O)C(C)(C)[C@@H](O)CC(=O)O1` [EPOTHILONE H1] was tested, and the IC50 was 0.12 µg/mL (≈ 0.26 µM). For `C/C1=C/C[C@@H](/C(C)=C/c2coc(C)n2)OC(=O)C[C@H](O)C(C)(C)C(=O)[C@H](C)[C@@H](O)[C@@H](C)CCC1` [EPOTHILONE H2], the IC50 was 0.011 µg/mL (≈ 0.0231 µM). For `C/C(=C\c1csc(C)n1)[C@@H]1C/C=C\CCCCC[C@H](C)[C@H](O)[C@@H](C)C(=O)C(C)(C)[C@@H](O)CC(=O)O1` [EPOTHILONE I1], the IC50 was 0.8 µg/mL (≈ 1.58 µM). For `C/C(=C\c1csc(C)n1)[C@@H]1C/C=C\CCCC(C)C[C@H](C)[C@H](O)[C@@H](C)C(=O)C(C)(C)[C@@H](O)CC(=O)O1` (some centres not stated) [EPOTHILONE I2], the IC50 was 0.4 µg/mL (≈ 0.77 µM). For `C/C1=C/C[C@@H](/C(C)=C/c2csc(C)n2)OC(=O)C[C@H](O)C(C)(C)C(=O)[C@H](C)[C@@H](O)[C@@H](C)CC(C)CCC1` (some centres not stated) [EPOTHILONE I3], the IC50 was 0.6 µg/mL (≈ 1.12 µM). `C/C(=C\c1csc(C)n1)[C@@H]1C/C=C\CCCC(C)C[C@H](C)[C@H](O)[C@@H](C)C(=O)[C@@H](C)[C@@H](O)CC(=O)O1` (some centres not stated) [EPOTHILONE I4] was tested, and the IC50 was 0.3 µg/mL (≈ 0.593 µM). For `C/C1=C/C[C@@H](/C(C)=C/c2csc(C)n2)OC(=O)C[C@H](O)[C@H](C)C(=O)[C@H](C)[C@@H](O)[C@@H](C)CC(C)CCC1` (some centres not stated) [EPOTHILONE I5], the IC50 was 0.1 µg/mL (≈ 0.192 µM). `C/C1=C/C[C@@H](/C(C)=C/c2csc(C)n2)OC(=O)C[C@H](O)[C@@H](C)C(=O)[C@H](C)[C@@H](O)[C@@H](C)CC(C)CCC1` (some centres not stated) [EPOTHILONE I6] showed an IC50 of 0.6 µg/mL (≈ 1.15 µM). `C/C(=C\c1csc(C)n1)[C@@H]1C[C@@H]2O[C@]2(C)CCC[C@H](C)[C@H](O)[C@@H](C)C(=O)C(C)(C)[C@@H](O)CC(=O)O1` [PATUPILONE] showed an IC50 of 0.001 µg/mL (≈ 0.00197 µM).
